Data from paper PMC8076879 (Acta Pharmacologica Sinica, 2021).

Assays:
in vitro = conditions: African green monkey
[1] = Cytotoxicity in HEK293T cells, CCK8 assay; type: cell-based; conditions: human
[2] = Cytotoxicity in Huh-7 cells, CCK8 assay; type: cell-based; conditions: human
SARS-CoV-2 = conditions: read-out: anti-SARS-CoV-2 EC50 (reported); cited from earlier work
[3] = cited from earlier work
[4] = cited from earlier work; remark: listed apart in the source

SMILES | CC50 (in vitro) | CC50 [1] | CC50 [2] | EC50 (SARS-CoV-2) | crossing of the blood-brain barrier [3] | toxicity in animal toxicological experiments [4]
CC[C@H]1CN2CCc3cc(OC)c(OC)cc3[C@@H]2C[C@@H]1C[C@H]1NCCc2cc(O)c(OC)cc21 [cephaeline] | 49 ± 46.3 µM | 2 ± 0.468 µM | 3.04 ± 1.7 µM |  |  | 
CC[C@H]1CN2CCc3cc(OC)c(OC)cc3[C@@H]2C[C@@H]1C[C@H]1NCCc2cc(OC)c(OC)cc21 [emetine] | 2.17 ± 0.258 µM | 0.0378 ± 0.000562 µM | 0.0334 ± 0.000617 µM | 0.46 µM |  | 
O[C@H]1[C@H]2c3cc4c(cc3CN3CCC(=C[C@@H]1O)[C@H]23)OCO4 [lycorine] | > 1000 µM | 1.04 ± 0.0734 µM | 0.834 ± 0.063 µM | 0.31 µM | able to cross the blood-brain barrier | low toxicity and mild side effects
